Laboratory results published in patent US20210137930A1, “EXPANSION OF TUMOR INFILTRATING LYMPHOCYTES (TILS) WITH ADENOSINE A2A RECEPTOR ANTAGONISTS AND THERAPEUTIC COMBINATIONS OF TILS AND ADENOSINE A2A RECEPTOR ANTAGONISTS” (Iovance Biotherapeutics, Inc., priority 2018, published 2021).

Legend:
[1] = tested on: melanoma TILs; assay: Cell counts of melanoma TILs expanded in pre-REP and REP with CPI-444; assay type: cell-based, human; details: pre-REP 11 days, melanoma tumor fragments pooled
Protocol: The expression of A2aR on TILs and the effect of an A2aR antagonist on TILs was evaluated by culturing melanoma tumor fragments or lung tumor fragments in both pre-REP and the REP phases either with or without the addition of CPI-444 (ciforadenant), an A2aR antagonist, which was obtained commercially from MedChemExpress, Inc., Monmouth Junction, N.J., USA. The experimental procedure is similar to that of Example 3 and Example 10, with the changes as described below.
Melanoma tumors and lung tumors were obtained from patients. The tumor samples were generally fragmented using sharp dissection into small pieces of about 3 mm×3 mm×3 mm. The TILs were cultured from these fragments using mechanical dissociation, using scalpel and forceps. Repeated cycles of mechanical dissociation and mixing were applied until only small tissue pieces are present. At the end of this process, the tumor fragments were placed into pre-REP culture. […]
After TIL harvesting, the TILs are phenotypically analyzed: (1) the total number of cells were counted with an automated cell counter; (2) Flow cytometry was used to determine the fraction of TILs that were CD4^+, CD8^+, within the subset of memory T-Cells, and to determine the presence/absence of A2aR and the expression level of A2aR. […]

[2] = tested on: melanoma TILs; assay: Flow cytometry of CD8+ and CD4+ subsets, melanoma TILs expanded with CPI-444; assay type: cell-based, human; details: melanoma TIL cultures treated with A2aR antagonist
Excerpt: (§1) After TIL harvesting, the TILs are phenotypically analyzed: (1) the total number of cells were counted with an automated cell counter; (2) Flow cytometry was used to determine the fraction of TILs that were CD4^+, CD8^+, within the subset of memory T-Cells, and to determine the presence/absence of A2aR and the expression level of A2aR.
(§2) FIG. 43 illustrates the results of flow cytometry analysis of CD8^+ and CD4^+ subsets for melanoma TILs obtained after the addition of the A2AR antagonist to pre-REP and REP cultures under various conditions. FIG. 44 and FIG. 45 illustrates flow cytometry analysis of CD8^+ and CD4^+ subsets for lung TILs (first and second lung tumor, respectively) obtained after the addition of CPI-444 to pre-REP and REP cultures under various conditions.

[3] = tested on: lung TILs; assay: Flow cytometry of CD8+ and CD4+ subsets, lung TILs expanded with CPI-444; assay type: cell-based, human; details: lung TIL cultures
Excerpt: as §1, §2

[4] = tested on: peripheral blood B cells; details: cynomolgus monkeys; doses from 0.001-100 mg/kg; two experiments; WO 2015/119923; cited from earlier work

Row | Molecule | Cell Count at end or preREP Culture (Millions of Cells) ([1]; IL-2 + 12 nM CPI-444/100,000 Cells) | Cell Count at end or preREP Culture (Millions of Cells) ([1]; IL-2 + 48 nM CPI-444/100,000 Cells) | CD8+ population [2] | CD8+ population ([3]; at the 12 nM, 48 nM and 32 μM concentrations) | CD8+ TIL populations, response to 8 μM versus 32 μM ([3]; second tumor) | peripheral blood B cell numbers [4]
1 | Cc1ccc(-c2nc(N)nc3c2nnn3Cc2cccc(CO[C@H]3CCOC3)n2)o1 [CPI-444, 7-(5-methylfuran-2-yl)-3-[[6-[[(3S)-oxolan-3-yl]oxymethyl]pyridin-2-yl]methyl]triazolo[4,5-d]pyrimidin-5-amine] | 8.7 Millions of Cells | 12.8 Millions of Cells | decrease | increase | modulated differently | 
2 | PF-05082566: fully human immunoglobulin G2-lambda anti-4-1BB (CD137) agonist monoclonal antibody, Pfizer; SEQ ID NO:11 and 12 |  |  |  |  |  | either unchanged or decreased
